Assay results taken from patent US11767295B2, “Isoindole derivative” (TIANJIN HEMAY PHARMACEUTICAL CO., LTD., priority 2018, dated 2023).

Key:
Assay type in all cases: in vivo
[1] = tested on: Phorbol ester (TPA)-induced ear swelling in mice; test: Inhibition of phorbol ester (TPA)-induced ear swelling in mice (Biological Example 6); details: ICR mice, 5 hours after TPA modeling; for Ear Swelling Rate / Inhibitory Rate of Ear Swelling Degree: 2 mg/mouse on right ear; for Ear Swelling Rate: (right−left)/left ear weight; for Inhibitory Rate of Ear Swelling Degree: vs model and blank control; for Ear Swelling Degree: 50 mg/mL in acetone, 40 μL in 2 administrations (2 mg/mouse)
Protocol: (§1) 72 male ICR mice were selected and divided into 9 groups. There were 8 mice in each group.
(§2) Before the test, the animals were grouped and the hair around the right ear of the mice was removed.
(§3) 20 μL of respective drug was applied to the animals in each test group (a blank solvent was applied to the model control group). Modeling and induction were carried out after 1 h 10 min. Except for the blank group, 20 μL of TPA at a concentration of 125 μg/mL were applied to the right ears of the animals for induction. After induction for 10 minutes, 20 μL of respective drug were applied to the right ears of the animals in each test group (a blank solvent was applied to the model control group).
After modeling for 5 hours, ear pieces of both sides at the same location of animals in each group were taken with a punch and weighed to calculate the ear swelling degree, ear swelling rate and inhibitory rate.
The ear swelling degree and ear swelling rate after modeling and administration for 5 hours were analyzed and tested with One-Way ANOVA multiple-group test index in SPSS17.0. […] Ear swelling degree (mg)=right ear weight (mg)−left ear weight (mg); Ear swelling rate (%)=(right ear weight−left ear weight)/left ear weight×100%; Inhibitory rate of ear swelling degree (%)=1−(swelling degree of drug administration group−swelling degree of blank control group)/(swelling degree of model control group−swelling degree of blank control group)×100%.

[2] = tested on: Phorbol ester (TPA)-induced ear swelling in mice; test: Inhibition of phorbol ester (TPA)-induced ear swelling in mice (Biological Example 5); details: ICR mice, 5 hours after TPA modeling; for Ear Swelling Rate / Inhibitory Rate of Ear Swelling Degree: 2 mg/mouse on right ear; for Ear Swelling Rate: (right−left)/left ear weight; for Inhibitory Rate of Ear Swelling Degree: vs model and blank control; for Ear Swelling Degree: 50 mg/mL in acetone, 40 μL in 2 administrations (2 mg/mouse)
Protocol: as §1, §2, §3
After modeling for 5 hours, ear pieces of both sides on the same location of animals in each group were taken with a punch and weighed to calculate the ear swelling degree, ear swelling rate and inhibitory rate.
The ear swelling degree and ear swelling rate after modeling and administration for 5 hours were analyzed and tested with One-Way ANOVA multiple-group test index in SPSS17.0. P<0.05 indicated there were statistical differences. Ear swelling degree (mg)=right ear weight (mg)−left ear weight (mg); Ear swelling rate (%)=(right ear weight−left ear weight)/left ear weight×100%; Inhibitory rate of ear swelling degree (%)=1−(ear swelling degree of drug administration group−ear swelling degree of blank control group)/(ear swelling degree of model control group−ear swelling degree of blank control group)×100%.

[3] = tested on: DNCB-induced atopic dermatitis in Balb/c mice; test: Efficacy evaluation test of DNCB-induced atopic dermatitis in Balb/c mice model (Biological Example 1); details: BID × 10
Protocol: 60 healthy male SPF Balb/c mice, each of which the body weight was 19-21 g, were randomly divided into 6 groups by body weight. There were 10 mice in each group.
(§4) Before the test, the hair around the right ear of the mouse was removed to reduce the interference in the drug adhesion to the hair.
(§5) The start of the test was recorded as Day 1. The specific time for measuring ear thickness was slightly adjusted based on FIG. 1. After the end of the 18th day of the test, blood was taken from each animal to detect the concentration of immunoglobulin (IgE) in the serum (in accordance with the kit instructions). Both ears of the animal were cut off. Ear pieces were cut by an 8 mm punch at the fixed position of the ears and weighed. Differences in the swelling degrees of two ears were calculated.
The changes in mouse ear thickness and the ear weights of the same area and the IgE concentrations in the serum among different groups on the 18th day were analyzed and compared statistically with One-Way Anova in SPSS 17, respectively. The G test method was used to delete outliers. p<0.05 indicated there were statistical differences. Ear swelling degree (mg)=right ear weight (mg)−left ear weight (mg); Ear thickness change (mm)=right ear thickness (mm)−left ear thickness (mm); Inhibitory rate of ear swelling degree (%)=1−(ear swelling degree of drug administration group−ear swelling degree of blank control group)/(ear swelling degree of model control group−ear swelling degree of blank control group)×100%; Inhibitory rate of ear thickness change (%)=1−(ear thickness change of drug administration group−ear thickness change of blank control group)/(ear thickness change of model control group−ear thickness change of blank control group)×100%; Inhibitory rate of IgE (%)=1−(IgE concentration in administration group−IgE concentration in blank control group)/(IgE concentration in model control group−IgE concentration in blank control group)×100%.

[4] = tested on: DNCB-induced atopic dermatitis in Balb/c mice; test: Efficacy evaluation test of DNCB-induced atopic dermatitis in Balb/c mice model (Biological Example 2); details: BID × 10; for Inhibitory Rate of Ear Swelling / Weight Changes of Animals, Day 10 / Weight Changes of Animals, Day 17 / Weight Changes of Animals, Day 18 / Ear Swelling Degree / IgE Concentration / Inhibitory Rate of IgE Concentration: 1 mg/mouse on ear; for Inhibitory Rate of Ear Swelling / Ear Swelling Degree / IgE Concentration / Inhibitory Rate of IgE Concentration: 18th day; for Inhibitory Rate of Ear Swelling / Inhibitory Rate of IgE Concentration: vs model and blank control; for Weight Changes of Animals, Day 1 / Weight Changes of Animals, Day 10 / Weight Changes of Animals, Day 17 / Weight Changes of Animals, Day 18: Balb/c mice, Mean ± S.D.; for Weight Changes of Animals, Day 1: 1 mg/mouse (50 mg/mL, 20 μL) on ear; for Ear Swelling Degree: right minus left ear piece weight; for IgE Concentration / Inhibitory Rate of IgE Concentration: serum
Protocol: 70 healthy male SPF Balb/c mice, each of which the weight was 19-21 g, were randomly divided into 7 groups by body weight. There were 10 mice in each group.
as §4
as §5, with “Day” for “Day 1. The specific time for measuring ear thickness was slightly adjusted based on FIG.”
The IgE concentrations in the serum of different groups on the 18th day were analyzed and compared statistically with One-Way Anova in SPSS 17, respectively. The G test method was used to delete outliers. p<0.05 indicated there were statistical differences. Ear swelling degree (mg)=right ear weight (mg)−left ear weight (mg); Inhibitory rate of ear swelling degree (%)=1−(ear swelling degree of drug administration group−ear swelling degree of blank control group)/(ear swelling degree of model control group−ear swelling degree of blank control group)×100%; Inhibitory rate of IgE (%)=1−(IgE concentration in administration group−IgE concentration in blank control group)/(IgE concentration in model control group−IgE concentration in blank control group)×100%.

[5] = Balb/c mice, 1 mg/mouse on ear, Day 10, Mean ± S.D.
[6] = Balb/c mice, 1 mg/mouse on ear, Day 17, Mean ± S.D.
[7] = Balb/c mice, 1 mg/mouse on ear, Day 18, Mean ± S.D.

Compound | Ear Swelling Rate [1] | Inhibitory Rate of Ear Swelling Degree [1] | Ear Swelling Degree [1] | Ear Swelling Rate [2] | Inhibitory Rate of Ear Swelling Degree [2] | Ear Swelling Degree [2] | other results
CCOc1cc(C(CC(=O)OC)N2C(=O)c3cccc(O)c3C2=O)ccc1OC (stereo not drawn) [Example 32, methyl 3-(4-hydroxy-1,3-dioxoisoindolin-2-yl)-3-(3-ethoxy-4-methoxyphenyl)propionate] | 93.3 ± 28.1 % | 55.6% | 13.4 ± 4.0 mg |  |  |  | 
CCOc1cc(C(CC(=O)OC)N2C(=O)c3cccc(N(C)C(C)=O)c3C2=O)ccc1OC (stereo not drawn) [Example 24, methyl 3-(4-(N-methylacetamido)-1,3-dioxoisoindolin-2-yl)-3-(3-ethoxy-4-methoxyphenyl)propionate] |  |  |  | 43.0 ± 11.8 % | 84.2% | 5.9 ± 1.7 mg | 
CCOc1cc(C(CC(=O)OC)N2C(=O)c3ccc(NC(C)=O)cc3C2=O)ccc1OC (stereo not drawn) [Example 25, methyl 3-(5-acetamido-1,3-dioxoisoindolin-2-yl)-3-(3-ethoxy-4-methoxyphenyl)propionate] |  |  |  | 59.1 ± 17.5 % | 73.6% | 8.5 ± 2.7 mg | 
COC(=O)CC(c1ccc(OC)c(OC)c1)N1C(=O)c2cccc(NC(C)=O)c2C1=O (stereo not drawn) [Example 3, methyl 3-(4-acetamido-1,3-dioxoisoindolin-2-yl)-3-(3,4-dimethoxyphenyl)propionate] |  |  |  | 42.1 ± 19.3 % | 83.7% | 6.0 ± 2.5 mg | Inhibitory Rate of Ear Swelling Degree ([3]; 1 mg/mouse on ear, 18th day, vs model and blank control): 37.8%; Weight Changes of Animals, Day 1 ([3]; Balb/c mice, 1 mg/mouse (50 mg/mL, 20 μL) on ear, Day 1, Mean ± S.D.): 20.6 ± 0.8 g; Inhibitory Rate of Ear Thickness ([3]; Balb/c mice, 1 mg/mouse on ear, 18th day, vs model and blank control): 34.0%; Ear Thickness Change, Day 1 ([3]; Balb/c mice, 1 mg/mouse on ear, Day 1, Mean ± S.D.): 0.21 ± 0.01 mm; Ear Thickness Change, Day 10 [3, 5]: 0.38 ± 0.10 mm; Weight Changes of Animals, Day 10 [3, 5]: 22.3 ± 1.4 g; Ear Thickness Change, Day 17 [3, 6]: 0.58 ± 0.09 mm; Weight Changes of Animals, Day 17 [3, 6]: 22.1 ± 1.8 g; Ear Thickness Change, Day 18 [3, 7]: 0.58 ± 0.10 mm; Weight Changes of Animals, Day 18 [3, 7]: 21.7 ± 1.8 g; Ear Thickness ([3]; Table 4, Balb/c mice, 1 mg/mouse on ear, 18th day): 0.58 ± 0.10 mm; Ear Swelling Degree ([3]; right minus left ear piece weight (8 mm punch), 1 mg/mouse on ear, 18th day): 15.7 ± 4.5 mg; IgE Concentration ([3]; serum, 1 mg/mouse on ear, 18th day): 6526.5 ± 2171.9 ng/mL; Inhibitory Rate of IgE Concentration ([3]; serum, 1 mg/mouse on ear, 18th day, vs model and blank control): 27.0%
CCOC(=O)C[C@H](c1ccc(OC)c(OCC)c1)N1C(=O)c2cccc(NC(C)=O)c2C1=O [Example 51, ethyl (R)-3-(4-acetamido-1,3-dioxoisoindolin-2-yl)-3-(3-ethoxy-4-methoxyphenyl)propionate] |  |  |  |  |  |  | Inhibitory Rate of Ear Swelling [4]: 25.0%; Weight Changes of Animals, Day 1 [4]: 21.8 ± 0.7 g; Weight Changes of Animals, Day 10 [4]: 22.8 ± 1.2 g; Weight Changes of Animals, Day 17 [4]: 23.1 ± 1.1 g; Weight Changes of Animals, Day 18 [4]: 22.9 ± 1.3 g; Ear Swelling Degree [4]: 21.7 ± 4.5 mg; IgE Concentration [4]: 6599.5 ± 2996.0 ng/mL; Inhibitory Rate of IgE Concentration [4]: 23.3%
CCOc1cc(C(CC(=O)OC(C)C)N2C(=O)c3cccc(NC(C)=O)c3C2=O)ccc1OC (stereo not drawn) [Example 12, isopropyl 3-(4-acetamido-1,3-dioxoisoindolin-2-yl)-3-(3-ethoxy-4-methoxyphenyl)propionate] |  |  |  | 39.6 ± 14.0 % | 84.8% | 5.8 ± 2.3 mg | 
CCCOc1cc(C(CC(=O)OC)N2C(=O)c3cccc(NC(C)=O)c3C2=O)ccc1OC (stereo not drawn) [Example 29, methyl 3-(4-acetamido-1,3-dioxoisoindolin-2-yl)-3-(3-propoxy-4-methoxyphenyl)propionate] | 46.8 ± 33.9 % | 81.5% | 6.5 ± 4.6 mg |  |  |  | 
CCOC(=O)CC(c1ccc(OC)c(OCC)c1)N1C(=O)c2cccc(NC(C)=O)c2C1=O (stereo not drawn) [Example 6, ethyl 3-(4-acetamido-1,3-dioxoisoindolin-2-yl)-3-(3-ethoxy-4-methoxyphenyl)propionate] |  |  |  | 36.4 ± 11.9 % | 87.3% | 5.1 ± 1.6 mg | Inhibitory Rate of Ear Swelling [4]: 41.7%; Weight Changes of Animals, Day 1 [4]: 21.4 ± 0.7 g; Weight Changes of Animals, Day 10 [4]: 22.8 ± 1.4 g; Weight Changes of Animals, Day 17 [4]: 23.3 ± 1.4 g; Weight Changes of Animals, Day 18 [4]: 22.7 ± 1.5 g; Ear Swelling Degree [4]: 17.1 ± 4.0 mg; IgE Concentration [4]: 5871.9 ± 2973.8 ng/mL; Inhibitory Rate of IgE Concentration [4]: 32.8%
COC(=O)CC(c1ccc(OC)c(OC2CCCC2)c1)N1C(=O)c2cccc(NC(C)=O)c2C1=O (stereo not drawn) [Example 30, methyl 3-(4-acetamido-1,3-dioxoisoindolin-2-yl)-3-(3-cyclopentyloxy-4-methoxyphenyl)propionate] | 85.0 ± 27.4 % | 60.8% | 12.0 ± 3.5 mg |  |  |  | 
CCOc1cc(C(CC(=O)OC)N2C(=O)c3cccc(NC(C)=O)c3C2=O)ccc1OC(C)C (stereo not drawn) [Example 18, methyl 3-(4-acetamido-1,3-dioxoisoindolin-2-yl)-3-(3-ethoxy-4-isopropoxyphenyl)propionate] | 33.9 ± 14.0 % | 88.1% | 4.8 ± 1.9 mg |  |  |  | 
CCOc1cc(C(CC(=O)OC)N2C(=O)c3cccc(NC(C)=O)c3C2=O)ccc1OC1CCCC1 (stereo not drawn) [Example 20, methyl 3-(4-acetamido-1,3-dioxoisoindolin-2-yl)-3-(3-ethoxy-4-cyclopentyloxyphenyl)propionate] | 63.9 ± 19.3 % | 73.0% | 8.8 ± 2.8 mg |  |  |  | 
